Assay results: PMC10877925 (Cell Communication and Signaling : CCS, 2024)

Columns and labels:
[1] = molecular target: T1, PfEGF1-α (Plasmodium falciparum, UniProt Q8I0P6); experiment: bio-layer interferometry; format: binding
T1 construct: gene PF3D7_1357000; recombinant, pET28a vector, E. coli BL21; immobilised on NTA biosensor for BLI
T1 sequence (Q8I0P6 1-443): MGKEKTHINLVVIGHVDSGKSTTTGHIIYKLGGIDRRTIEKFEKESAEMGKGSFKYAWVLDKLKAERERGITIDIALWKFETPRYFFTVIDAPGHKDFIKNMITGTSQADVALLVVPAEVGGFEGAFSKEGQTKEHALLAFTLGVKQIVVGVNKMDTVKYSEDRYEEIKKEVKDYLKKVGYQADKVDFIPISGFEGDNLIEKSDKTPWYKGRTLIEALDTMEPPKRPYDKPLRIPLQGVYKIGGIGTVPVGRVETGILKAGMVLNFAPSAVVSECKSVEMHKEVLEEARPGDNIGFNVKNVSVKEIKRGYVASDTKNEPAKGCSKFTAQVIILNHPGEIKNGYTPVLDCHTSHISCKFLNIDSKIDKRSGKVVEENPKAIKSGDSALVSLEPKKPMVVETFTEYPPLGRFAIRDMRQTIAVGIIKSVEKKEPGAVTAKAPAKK

[2] = molecular target: T2, PfSpdsyn (Plasmodium falciparum, UniProt Q8II73); experiment: bio-layer interferometry; format: binding
T2 construct: gene PF3D7_1129000; 29-residue N-terminal deletion, pET28a vector, E. coli BL21; immobilised on NTA biosensor for BLI
T2 sequence (Q8II73 30-321): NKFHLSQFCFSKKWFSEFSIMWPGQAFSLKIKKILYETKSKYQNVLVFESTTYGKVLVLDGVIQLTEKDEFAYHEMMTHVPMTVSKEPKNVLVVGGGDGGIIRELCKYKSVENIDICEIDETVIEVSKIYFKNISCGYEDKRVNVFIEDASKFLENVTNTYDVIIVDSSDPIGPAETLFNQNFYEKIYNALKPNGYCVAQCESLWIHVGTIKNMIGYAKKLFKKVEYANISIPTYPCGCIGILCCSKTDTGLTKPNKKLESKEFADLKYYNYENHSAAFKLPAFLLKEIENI

`CC1=C(O)C(=O)C=C2C1=CC=C1[C@@]2(C)CC[C@@]2(C)[C@@H]3C[C@](C)(C(=O)O)CC[C@]3(C)CC[C@]12C` [Celastrol] gave a Kd [1] of 243 µM and a Kd [2] of 67.4 µM.
